Data taken from patent US8802597B2, “Herbicidal pyrimidines” (E I du Pont de Nemours and Company, priority 2003, dated 2014).
Where two headings read alike, the source gives them in different places.

How the values were obtained:
Assay type in all cases: in vivo
[1] = test system: barnyardgrass (Echinochloa crus-galli); assay: Test B flooded paddy test; details: Echinochloa crus-galli, Flood, scale 0 to 100, read-out: Plant response rating, Barnyardgrass
Summary of the method: (§1)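 Plants were grown to the 2-leaf stage before treatment, then kept in a greenhouse for 13 to 15 days. Injury was rated visually against untreated controls on a 0 to 100 scale, where 0 is no effect and 100 is complete control.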

[2] = test system: duck salad (Heteranthera limosa); assay: Test B flooded paddy test; details: Heteranthera limosa, Flood, scale 0 to 100, read-out: Plant response rating, Ducksalad
Summary of the method: as §1

[3] = test system: umbrella sedge (Cyperus difformis); assay: Test B flooded paddy test; details: Cyperus difformis, Flood, scale 0 to 100, read-out: Plant response rating, Sedge, Umbrella
Summary of the method: as §1

[4] = test system: rice (Oryza sativa); assay: Test B flooded paddy test; details: Oryza sativa, Flood, scale 0 to 100, read-out: Plant response rating, Rice
Summary of the method: as §1

[5] = test system: wild oat (Avena fatua); assay: Test B postemergence; details: Avena fatua, post-emergence
Summary of the method: (§2)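 Visual rating, 0 (no effect) to 100 (complete control) versus controls, taken 13–15 days after treatment in greenhouse. Compounds formulated in non-phytotoxic solvent plus surfactant; pre: sprayed after seeding; post: plants at 1- to 4-leaf stage, 2–18 cm.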

[6] = test system: blackgrass (Alopecurus myosuroides); assay: Test B postemergence; details: Alopecurus myosuroides, post-emergence
Summary of the method: as §2

[7] = test system: barnyardgrass (Echinochloa crus-galli); assay: Test B pre/postemergence; details: Echinochloa crus-galli; for pest or weed control at 62 g/ha: 62 g ai/ha; for pest or weed control at 250 g/ha: 250 g ai/ha
Summary of the method: as §2

[8] = test system: cocklebur (Xanthium strumarium); assay: Test B pre/postemergence; details: Xanthium strumarium; for pest or weed control at 62 g/ha: 62 g ai/ha; for pest or weed control at 250 g/ha: 250 g ai/ha
Summary of the method: as §2

[9] = test system: giant foxtail (Setaria faberii); assay: Test B pre/postemergence; details: Setaria faberi; for pest or weed control at 62 g/ha: 62 g ai/ha; for pest or weed control at 250 g/ha: 250 g ai/ha
Summary of the method: as §2

[10] = test system: crabgrass (Digitaria sanguinalis); assay: Test B pre/postemergence; details: Digitaria sanguinalis; for pest or weed control at 62 g/ha: 62 g ai/ha; for pest or weed control at 250 g/ha: 250 g ai/ha
Summary of the method: as §2

[11] = test system: corn (Zea mays); assay: Test B pre/postemergence; details: Zea mays; for Corn plant response rating (crop injury, 0 = no effect, 100 = complete kill) at 250 g/ha: 250 g ai/ha
Summary of the method: as §2

[12] = test system: pigweed (Amaranthus retroflexus); assay: Test B pre/postemergence; details: Amaranthus retroflexus; for pest or weed control at 62 g/ha: 62 g ai/ha; for pest or weed control at 250 g/ha: 250 g ai/ha
Summary of the method: as §2

[13] = test system: velvetleaf (Abutilon theophrasti); assay: Test B pre/postemergence; details: Abutilon theophrasti; for pest or weed control at 62 g/ha: 62 g ai/ha; for pest or weed control at 250 g/ha: 250 g ai/ha
Summary of the method: as §2

[14] = test system: wheat (Triticum aestivum); assay: Test B pre/postemergence; details: Triticum aestivum; for plant injury at 62 g/ha: 62 g ai/ha; for plant injury at 250 g/ha: 250 g ai/ha
Summary of the method: as §2

[15] = test system: lambsquarters (Chenopodium album); assay: Test B pre/postemergence; details: Chenopodium album, post-emergence, Postemergence
Summary of the method: as §2

[16] = test system: morningglory (Ipomoea coccinea); assay: Test B pre/postemergence; details: Ipomoea; for pest or weed control at 62 g/ha: 62 g ai/ha; for pest or weed control at 250 g/ha: 250 g ai/ha
Summary of the method: as §2

[17] = test system: Surinam grass (Brachiaria decumbens); assay: Test B pre/postemergence; details: Urochloa decumbens; for pest or weed control at 62 g/ha: 62 g ai/ha; for pest or weed control at 250 g/ha: 250 g ai/ha
Summary of the method: as §2

[18] = pre-emergence, Preemergence, scale 0 to 100 (0 no effect, 100 complete control), read-out: Plant response rating, Barnyardgrass
[19] = pre-emergence, Preemergence, scale 0 to 100 (0 no effect, 100 complete control), read-out: Plant response rating, Wheat

Compound: CCOC(=O)c1nc(-c2ccc(Cl)cc2)nc(N)c1Cl [Compound 64, ethyl 6-amino-5-chloro-2-(4-chlorophenyl)-4-pyrimidinecarboxylate]
- pest or weed control at 62 g/ha ([1]; 62 g ai/ha): 0%
- pest or weed control at 125 g/ha ([1]; 125 g ai/ha): 0%
- pest or weed control at 250 g/ha ([1]; 250 g ai/ha): 0%
- pest or weed control at 500 g/ha ([1]; 500 g ai/ha): 0%
- pest or weed control at 62 g/ha ([2]; 62 g ai/ha): 80%
- pest or weed control at 125 g/ha ([2]; 125 g ai/ha): 90%
- pest or weed control at 250 g/ha ([2]; 250 g ai/ha): 100%
- pest or weed control at 500 g/ha ([2]; 500 g ai/ha): 100%
- pest or weed control at 62 g/ha ([3]; 62 g ai/ha): 0%
- pest or weed control at 125 g/ha ([3]; 125 g ai/ha): 0%
- pest or weed control at 250 g/ha ([3]; 250 g ai/ha): 70%
- pest or weed control at 500 g/ha ([3]; 500 g ai/ha): 90%
- plant injury at 62 g/ha ([4]; 62 g ai/ha): 0%
- plant injury at 125 g/ha ([4]; 125 g ai/ha): 0%
- plant injury at 250 g/ha ([4]; 250 g ai/ha): 0%
- plant injury at 500 g/ha ([4]; 500 g ai/ha): 0%

Compound: CCOC(=O)c1nc(C2CC2)nc(NC(C)=O)c1Br [Compound 53]
- pest or weed control at 62 g/ha ([5]; 62 g ai/ha, scale 0 to 100 (0 no effect, 100 complete control), read-out: Oat, Wild plant response rating): 30%
- pest or weed control at 250 g/ha ([5]; 250 g ai/ha, scale 0 to 100, read-out: Plant response rating, Oat, Wild): 60%
- pest or weed control at 62 g/ha ([6]; 62 g ai/ha, scale 0 to 100 (0 no effect, 100 complete control), read-out: Blackgrass plant response rating): 20%
- pest or weed control at 250 g/ha ([6]; 250 g ai/ha, scale 0 to 100, read-out: Plant response rating, Blackgrass): 60%
- pest or weed control at 62 g/ha ([7]; post-emergence, Postemergence, scale 0 to 100 (0 no effect, 100 complete control), read-out: Barnyardgrass plant response rating): 80%
- pest or weed control at 250 g/ha ([7]; post-emergence, Postemergence, scale 0 to 100, read-out: Plant response rating, Barnyardgrass): 90%
- pest or weed control at 62 g/ha [7, 18]: 0%
- pest or weed control at 250 g/ha [7, 18]: 70%
- pest or weed control at 62 g/ha ([8]; post-emergence, Postemergence, scale 0 to 100 (0 no effect, 100 complete control), read-out: Cocklebur plant response rating): 50%
- pest or weed control at 250 g/ha ([8]; post-emergence, Postemergence, scale 0 to 100, read-out: Plant response rating, Cocklebur): 90%
- pest or weed control at 62 g/ha ([8]; pre-emergence, Preemergence, scale 0 to 100, 0 no effect, 100 complete control, read-out: Plant response rating, Cocklebur): 60%
- pest or weed control at 250 g/ha ([8]; pre-emergence, Preemergence, scale 0 to 100 (0 no effect, 100 complete control), read-out: Plant response rating, Cocklebur): 100%
- pest or weed control at 62 g/ha ([9]; post-emergence, Postemergence, scale 0 to 100 (0 no effect, 100 complete control), read-out: Foxtail, Giant plant response rating): 30%
- pest or weed control at 250 g/ha ([9]; post-emergence, Postemergence, scale 0 to 100, read-out: Plant response rating, Foxtail, Giant): 70%
- pest or weed control at 250 g/ha ([9]; pre-emergence, Preemergence, scale 0 to 100 (0 no effect, 100 complete control), read-out: Plant response rating, Foxtail, Giant): 50%
- pest or weed control at 62 g/ha ([9]; pre-emergence, Preemergence, scale 0 to 100, 0 no effect, 100 complete control, read-out: Plant response rating, Foxtail, Giant): 0%
- pest or weed control at 62 g/ha ([10]; post-emergence, Postemergence, scale 0 to 100 (0 no effect, 100 complete control), read-out: Crabgrass plant response rating): 0%
- pest or weed control at 250 g/ha ([10]; post-emergence, Postemergence, scale 0 to 100, read-out: Plant response rating, Crabgrass): 30%
- pest or weed control at 62 g/ha ([10]; pre-emergence, Preemergence, scale 0 to 100, 0 no effect, 100 complete control, read-out: Plant response rating, Crabgrass): 0%
- pest or weed control at 250 g/ha ([10]; pre-emergence, Preemergence, scale 0 to 100 (0 no effect, 100 complete control), read-out: Plant response rating, Crabgrass): 50%
- plant injury at 62 g/ha ([11]; post-emergence, Postemergence, 62 g ai/ha, scale 0 to 100 (0 no effect, 100 complete control), read-out: Corn plant response rating): 0%
- Corn plant response rating (crop injury, 0 = no effect, 100 = complete kill) at 250 g/ha ([11]; post-emergence, Postemergence, scale 0 to 100): 70%
- Corn plant response rating (crop injury, 0 = no effect, 100 = complete kill) at 62 g/ha ([11]; pre-emergence, Preemergence, 62 g ai/ha, scale 0 to 100, 0 no effect, 100 complete control): 0%
- Corn plant response rating (crop injury, 0 = no effect, 100 = complete kill) at 250 g/ha ([11]; pre-emergence, Preemergence, scale 0 to 100 (0 no effect, 100 complete control)): 0%
- pest or weed control at 62 g/ha ([12]; post-emergence, Postemergence, scale 0 to 100 (0 no effect, 100 complete control), read-out: Pigweed plant response rating): 80%
- pest or weed control at 250 g/ha ([12]; post-emergence, Postemergence, scale 0 to 100, read-out: Plant response rating, Pigweed): 100%
- pest or weed control at 62 g/ha ([12]; pre-emergence, Preemergence, scale 0 to 100, 0 no effect, 100 complete control, read-out: Plant response rating, Pigweed): 60%
- pest or weed control at 250 g/ha ([12]; pre-emergence, Preemergence, scale 0 to 100 (0 no effect, 100 complete control), read-out: Plant response rating, Pigweed): 100%
- pest or weed control at 62 g/ha ([13]; post-emergence, Postemergence, scale 0 to 100 (0 no effect, 100 complete control), read-out: Velvetleaf plant response rating): 40%
- pest or weed control at 250 g/ha ([13]; post-emergence, Postemergence, scale 0 to 100, read-out: Plant response rating, Velvetleaf): 80%
- pest or weed control at 62 g/ha ([13]; pre-emergence, Preemergence, scale 0 to 100, 0 no effect, 100 complete control, read-out: Plant response rating, Velvetleaf): 20%
- pest or weed control at 250 g/ha ([13]; pre-emergence, Preemergence, scale 0 to 100 (0 no effect, 100 complete control), read-out: Plant response rating, Velvetleaf): 90%
- plant injury at 62 g/ha ([14]; post-emergence, Postemergence, scale 0 to 100 (0 no effect, 100 complete control), read-out: Wheat plant response rating): 30%
- plant injury at 250 g/ha ([14]; post-emergence, Postemergence, scale 0 to 100, read-out: Plant response rating, Wheat): 60%
- plant injury at 62 g/ha [14, 19]: 0%
- plant injury at 250 g/ha [14, 19]: 40%
- pest or weed control at 62 g/ha ([15]; 62 g ai/ha, scale 0 to 100 (0 no effect, 100 complete control), read-out: Lambsquarters plant response rating): 90%
- pest or weed control at 250 g/ha ([15]; 250 g ai/ha, scale 0 to 100, read-out: Plant response rating, Lambsquarters): 100%
- pest or weed control at 62 g/ha ([16]; post-emergence, Postemergence, scale 0 to 100 (0 no effect, 100 complete control), read-out: Morningglory plant response rating): 90%
- pest or weed control at 250 g/ha ([16]; post-emergence, Postemergence, scale 0 to 100, read-out: Plant response rating, Morningglory): 90%
- pest or weed control at 62 g/ha ([16]; pre-emergence, Preemergence, scale 0 to 100, 0 no effect, 100 complete control, read-out: Plant response rating, Morningglory): 90%
- pest or weed control at 250 g/ha ([16]; pre-emergence, Preemergence, scale 0 to 100 (0 no effect, 100 complete control), read-out: Plant response rating, Morningglory): 100%
- pest or weed control at 62 g/ha ([17]; post-emergence, Postemergence, scale 0 to 100 (0 no effect, 100 complete control), read-out: Surinam Grass plant response rating): 10%
- pest or weed control at 250 g/ha ([17]; post-emergence, Postemergence, scale 0 to 100, read-out: Plant response rating, Surinam Grass): 50%
- pest or weed control at 250 g/ha ([17]; pre-emergence, Preemergence, scale 0 to 100 (0 no effect, 100 complete control), read-out: Plant response rating, Surinam Grass): 30%
- pest or weed control at 62 g/ha ([17]; pre-emergence, Preemergence, scale 0 to 100, 0 no effect, 100 complete control, read-out: Plant response rating, Surinam Grass): 0%
